# In patent US20130189764A1, “SELECTIVE GROWTH MEDIA” (Oxide Limited, priority 2000, published 2013):
# What was measured:
# Citrobacter freundii 370 = assay: MIC in DMSal medium (Example 17); assay type: cell-based; conditions: Citrobacter freundii, 370
# Enterococcus faecium 220 = assay: MIC in DMSal medium (Example 17); assay type: cell-based; conditions: Enterococcus faecium, 220
# E. coli OCC 2129 = assay: Bioscreen growth, comparison with conventional selective agents (Example 12); assay type: cell-based, Escherichia coli; conditions: 60 μg/ml alaphosphin
# Procedure: (§1) The following is an example to illustrate the beneficial lower toxic properties of the new selective agents towards the target microorganism, in this case Salmonella. Two selective agents, cefsulodin and novobiocin, as used conventionally in Salmonella isolation from foods (Humphrey and Whitehead, 1992 British Poultry Science 33, 761-768) were compared with alaphosphin. All were dissolved in deionised water, filter sterilised, and an amount of the solution added to either autoclaved Lab-Lemco broth+phosphate buffer (20 g/l; pH 6.0; ala-AEP) or Buffered Peptone Water (pH 6.8; cefsulodin and novobiocin) to give final concentrations of 66, 16.5 and 11 μg/ml respectively. [The different pH values reflect the different pH optima of the selective agents (ala-AEP was also subsequently used in BPW at pH 6.8 and similar results obtained)]. Volumes (300 μl) were then pipetted into the wells of Bioscreen microtitre plates and 30 μl quantities of 1 in 10,000 dilutions of overnight cultures of E. coli OCC 2129 and Salmonella typhimurium OCC 722, added. Plates were then covered, incubated at 37° C., and the opacity of the organism suspensions measured using a Bioscreen instrument.
# (§2) Typical results are shown in FIGS. 17-19, which are graphs of optical density against time for S. typhimurium (circles) and E. coli (squares) in the presence (empty symbols) or absence (filled symbols) of 15 μg/ml cefsulodin (FIG. 17), 10 μg/ml novobiocin (FIG. 18) or 60 μg/ml alaphosphin (FIG. 19).
# S. aureus ss aureus 2355 = assay: MIC in DMSal medium (Example 17); assay type: cell-based; conditions: Staphylococcus aureus
# Excerpt: (§3) Isoleucyl-AEP and sarcosyl-alanyl-AEP were compared to ala-AEP (all in DMSal medium) for the ability to selectively recover two clinically important pathogenic bacteria: Salmonella and Staphylococcus aureus.
# [1] = system: Enterococcus faecalis 581; assay: MIC in DMSal medium (Example 17); assay type: cell-based; conditions: Enterococcus faecalis, 581
# Excerpt: as §3
# [2] = system: Bacillus subtilis strain OCC 214; assay: growth on nutrient agar streak plates, pure culture (Example 1); assay type: cell-based; conditions: B. subtilis OCC214, nutrient agar, 0-10 mM tested
# Excerpt: In example 1 the sensitivity of Bacillus subtilis strain OCC 214 to alaphosphin or AEP was investigated. […] The organism is known to be LALA-ve, so the observations agree with the known characteristics of the organism.
# [3] = system: Salmonella typhimurium OCC 722; assay: Bioscreen growth, comparison with conventional selective agents (Example 12); assay type: cell-based; conditions: 60 μg/ml alaphosphin, Lab-Lemco broth + phosphate buffer pH 6.0
# Procedure: as §1, §2
# [4] = system: Enterococcus faecalis OCC 640; assay: growth on nutrient agar streak plates, pure culture (Example 3); assay type: cell-based; conditions: E. faecalis OCC 640, nutrient agar, 0-10 mM tested
# Excerpt: Example 1 was repeated using Enterococcus faecalis OCC 640 as the test organism.
# [5] = system: strains of Escherichia coli; assay: Bioscreen growth in Lab-Lemco broth (Example 11), E. coli strains; assay type: cell-based; conditions: 64 μg/ml, Lab-Lemco broth pH 5.7, 37° C., four E. coli strains
# Procedure: Thus, Ala-AEP was dissolved in deionised water (7.0 mg/ml), filter sterilised, and an amount of the solution added to autoclaved Lab-Lemco broth (20 g/l; pH 5.7) to give a concentration of 70 μg/ml. Volumes (300 μl) of this solution were then pipetted into the wells of Bioscreen microtitre plates and 30 μl quantities of 1 in 10,000 dilutions of overnight cultures added (reducing the final alaphosphin concentration to 64 μg/m). Plates were then covered, incubated at 37° C., and the opacity of the organism suspensions measured using a Bioscreen instrument. Growth of the Salmonella strains was unaffected whereas the E. coli strains were all inhibited.
# Typical results are shown in FIG. 16, which is a graph of Optical Density against time (hours). Growth of S. indiana OCC 2412 and S. worthington OCC 634 is denoted by crosses and circles respectively.
# [6] = system: Salmonella typhimurium 722; assay: MIC in DMSal medium (Example 17); assay type: cell-based; conditions: Salmonella enterica, TYPHIMURIUM
# Procedure: as §3
# For selective growth of Salmonella inhibition of Citrobacter, Enterobacter sakazakii and E. coli is important. […] Sarcosyl-alanyl-AEP used at a concentration of 1.0 μg/ml is sufficient to inhibit the growth of all three undesired bacteria while having no effect on growth of Salmonella typhimurium. […] Alternatively, a concentration of 2.0 μg/ml of isoleucyl-AEP is required to inhibit the growth of Citrobacter, Enterobacter sakazakii and E. coli and this concentration has no effect on the Salmonella typhimurium strain tested.
# E. coli 607 = assay: MIC in DMSal medium (Example 17); assay type: cell-based; conditions: Escherichia coli, 607
# K. pneumoniae CMCC 3077 = assay: growth on nutrient agar, mixed culture with B. subtilis (Example 8); assay type: cell-based, Klebsiella pneumoniae; conditions: K. pneumoniae in mixed culture with B. subtilis, nutrient agar
# Excerpt: Example 6 was repeated, this time using a mixed culture of B. subtilis OCC 214 and K. pneumoniae CMCC 3077, in the presence of AEP or alaphosphin. The empty columns show the growth of B. subtilis, the shaded columns denote growth of K. pneumoniae.
# [7] = system: Enterobacter sakazakii 1888; assay: MIC in DMSal medium (Example 17); assay type: cell-based; conditions: Cronobacter sakazakii, 1888
# E. faecalis OCC 604 = assay: growth on nutrient agar, mixed culture with S. aureus (Example 7); assay type: cell-based, Enterococcus faecalis; conditions: E. faecalis in mixed culture with S. aureus
# Excerpt: Example 6 was repeated, this time using a mixed culture of S. aureus OCC 102 and E. faecalis OCC 604, in the presence of AEP or alaphosphin. The empty columns represent growth of S. aureus, the shaded columns represent growth of E. faecalis. […] Thus alaphosphin could be used, when incorporated at an appropriate concentration in a medium, to inhibit growth of organisms such as Enterococci in samples whilst allowing Staphylococci to grow and be detected.
# E. coli strains = assay: inhibition of E. coli strains on DMSal agar for selective growth of Salmonella (Example 16); assay type: cell-based, Escherichia coli; conditions: DMSal agar
# Procedure: The experiments were conducted as follows: nutrient agar medium was autoclaved and, on cooling (but prior to setting) filter-sterilised alaphosphin or AEP were incorporated at final concentrations of 1 mM, 2 mM, 5 mM and 10 mM, and the medium used to pour plates. Control plates were prepared using nutrient agar without alaphosphin or AEP. A single colony of the organism under test was inoculated in 10 ml of nutrient broth and incubated (without agitation) at 37° C. for 4 hours.
# Trp-AEP was compared to alaphosphin (Ala-AEP) for selective growth of Salmonella strains on DMSal agar.
compound,measurement,setting,value
"C[C@H](N)C(=O)N[C@@H](C)P(=O)(O)O [alaphosphin, L-alanyl-L-1-aminoethylphosphonic acid]",MIC,Citrobacter freundii 370,1 µg/mL
same,MIC,Enterococcus faecium 220,> 50 µg/mL
same,growth of E. coli,E. coli OCC 2129,completely inhibited
same,MIC,S. aureus ss aureus 2355,10 µg/mL
same,MIC,[1],10 µg/mL
same,sensitivity of growth (in words),[2],completely insensitive
same,effect on growth of S. typhimurium,[3],no significant difference
same,concentration at which growth is completely inhibited,[4],≥ 2 mM
same,growth (optical density) in presence of the agent,[5],all inhibited
same,MIC,[6],2 µg/mL
same,MIC,E. coli 607,0.1 µg/mL
same,concentration at which growth is completely inhibited,K. pneumoniae CMCC 3077,≥ 2 mM
same,MIC,[7],0.075 µg/mL
same,concentration causing complete inhibition,E. faecalis OCC 604,≥ 2 mM
same,concentration needed to inhibit the growth of E. coli strains,E. coli strains,1.5 µg/mL
